From patent US20240188613A1, “SWEETENER COMPOSITIONS COMPRISING MOGROSIDES AND USES THEREOF” (Firmenich Incorporated, priority 2021, published 2024)

Experiments:
Assay type in all cases: in vivo, human
[1] = Sensory testing for lemon-lime carbonated soft drink (panel of volunteers)
Protocol: (§1) A panel of volunteers evaluated isomogroside IVE for in-mouth attributes (sweetness, delayed sweetness, sourness, bitterness, global flavor intensity, thickness/body, and astringence) and aftertaste (AT) attribtues (lingering sweetness, overall off-taste intensity, licorice off-tast, bitterness off-taste, and mouth coating) on a 10-point scale. Two replicate sessions were conducted, with a 20 minute break between sessions. There was a 90 second delay between samples within a session. Panelists evaluated all samples in a first session and evaluated the samples again a second time in a second session. Control samples of Rebaudioside M (Reb M) were evaluated during all sessions as a control. Mogroside V was also evaluated and sensory data for mogroside V is provided.
(§2) Data analysis was performed using 2-way analysis of variance (ANOVA) with interaction using Tukey's HSD test. The data was normalized for each attribute according to average scores for Reb M.
A panel of volunteers evaluated the isomogroside IVE-containing lemon-lime carbonated soft drink for in-mouth attributes and aftertaste attributes according to the methods described in Example 1 above.

[2] = Additional sensory testing for vanilla milk (panel of flavorists); conditions: 400 ppm mogrosides, 0 to 10 scale, letter in parentheses = Duncan's test group
Protocol: (§3) A panel of flavorists at three locations evaluated vanilla milk containing various mogrosides at a concentration of 400 ppm mogrosides for in-mouth attributes (peak sweetness, upfront sweetness, bitterness, and mouthfeel/thickness) and aftertaste attributes (sweet taste linger), on a 0 to 10 scale. The in-mouth attributes were evaluated while holding the sample in the mouth, while the aftertaste attributes were evaluated after expectoration. The data was analyzed using Duncan's new multiple range test and the scores are provided in the data below in parentheses.

[3] = Sensory testing for apple drink (panel of volunteers); conditions: for Bitterness / Delayed Sweetness / Global Flavor Intensity / Sweetness / Thickness/Body: in-mouth, normalized to Reb M
Protocol: as §1, §2

[4] = Additional sensory testing for lemon-flavored (lemon-lime) beverage (panel of flavorists); conditions: 600 ppm mogrosides, 0 to 10 scale, letter in parentheses = Duncan's test group
Protocol: as §3, with “lemon-lime beverage” for “vanilla milk containing”, “600” for “400”, “expectoration.” for “expectoration. The data was analyzed using Duncan's new multiple range test and the scores are provided in the data below in parentheses.”

[5] = Sensory testing for vanilla milk (panel of volunteers); conditions: for Licorice Aftertaste / Lingering Sweetness / Mouth Coating / Overall Off-Taste: aftertaste
Protocol: as §1, §2
A panel of volunteers evaluated vanilla milk containing isomogroside IVE for in-mouth attributes and aftertaste attributes according to the methods described in Example 1 above.

[6] = Sensory testing for sparkling orange beverage (panel of volunteers)
Protocol: as §1, §2
A panel of volunteers evaluated a sparkling orange beverage containing isomogroside IVE for in-mouth attributes and aftertaste attributes according to the methods described in Example 1 above.

[7] = Expert panelists' comparison of mogrosides with Stevia; conditions: "Examples 4 and 5", in words
[8] = 600 ppm (mogroside V 600 mg [sic]), aftertaste, 10-point scale, normalized
[9] = 600 ppm (mogroside V 600 mg [sic]), in-mouth, 10-point scale, normalized
[10] = 250 ppm (mogroside V 250 mg [sic]), aftertaste, 10-point scale
[11] = 250 ppm (mogroside V 250 mg [sic]), 10-point scale
[12] = 500 ppm (mogroside V 500 mg [sic]), aftertaste, 10-point scale
[13] = 500 ppm (mogroside V 500 mg [sic]), 10-point scale
[14] = same concentration of Reb M, in words
[15] = 200 ppm (mogroside V 200 mg [sic]), 10-point scale, normalized
[16] = 200 ppm (mogroside V 200 mg [sic]), in-mouth, 10-point scale, normalized
[17] = 400 ppm (mogroside V 400 mg [sic]), 10-point scale, normalized
[18] = 400 ppm (mogroside V 400 mg [sic]), in-mouth, 10-point scale, normalized
[19] = 250 ppm (mogroside V 250 mg [sic]), aftertaste, 10-point scale, normalized
[20] = 250 ppm (mogroside V 250 mg [sic]), in-mouth, 10-point scale, normalized

**Q.** Which results are given for C[C@H](CC[C@@H](O[C@@H]1O[C@H](CO)[C@@H](O)[C@H](O)[C@H]1O[C@@H]1O[C@H](CO)[C@@H](O)[C@H](O)[C@H]1O)C(C)(C)O)[C@@]1(C)CC[C@@]2(C)[C@@H]3CC=C4[C@@H](CC[C@H](O[C@@H]5O[C@H](CO)[C@@H](O[C@@H]6O[C@H](CO)[C@@H](O)[C@H](O)[C@H]6O)[C@H](O)[C@H]5O)C4(C)C)[C@]3(C)[C@H](O)C[C@@]21C [isomogroside IVE]?
**A.** Bitterness Aftertaste [1, 8]: 1.8; Licorice Aftertaste [1, 8]: 2.9; Lingering Sweetness [1, 8]: 4.2; Overall Off-Taste [1, 8]: 3.8; Bitterness [1, 9]: 2.2; Delayed Sweetness [1, 9]: 3.5; Global Flavor Intensity [1, 9]: 5.0; Sweetness [1, 9]: 5.0; Sweetness compared with Reb M ([1]; 600 ppm, in words): overall lower sweetness; Global flavor intensity compared with mogroside V ([1]; in words): higher global flavor intensity; Sweetness compared with mogroside V ([1]; in words): comparable sweetness; Sweet Linger ([2]; aftertaste after expectoration): 4.563 (b); Bitterness ([2]; in-mouth): 1.313 (ab); Mouthfeel/Thickness ([2]; in-mouth): 4.125 (b); Peak Sweetness ([2]; in-mouth): 5.938 (c); Upfront Sweetness ([2]; in-mouth): 5.125 (b); Bitterness Aftertaste [3, 10]: 1.5; Licorice Aftertaste [3, 10]: 2.4; Lingering Sweetness [3, 10]: 3.0; Overall Off-Taste [3, 10]: 3.2; Bitterness [3, 11]: 1.4; Delayed Sweetness [3, 11]: 2.1; Global Flavor Intensity [3, 11]: 3.3; Sweetness [3, 11]: 3.9; Thickness/Body [3, 11]: 1.6; Licorice Aftertaste [3, 12]: 2.2; Lingering Sweetness [3, 12]: 3.4; Mouth Coating [3, 12]: 2.0; Overall Off-Taste [3, 12]: 3.1; Bitterness [3, 13]: 1.9; Delayed Sweetness [3, 13]: 2.6; Global Flavor Intensity [3, 13]: 3.5; Sweetness [3, 13]: 4.5; Thickness/Body [3, 13]: 1.6; Overall off-taste compared with mogroside V ([3]; aftertaste, in words): lower overall off-taste; Lingering sweetness aftertaste compared with Reb M ([3]; at both 250 ppm and 500 ppm, in words): significantly improved; Bitterness compared with mogroside V ([3]; in words): lower bitterness; Global flavor intensity compared with mogroside V ([3]; in words): higher; Sweetness compared with mogroside V ([3]; in words): higher sweetness; Thickness/body compared with mogroside V ([3]; in words): higher thickness/body; Global flavor intensity compared with Reb M [3, 14]: lower global flavor intensity; Sweetness compared with Reb M [3, 14]: somewhat less sweet; Sweet Linger ([4]; aftertaste after expectoration): 3.429 (c); Bitterness ([4]; in-mouth): 1.857 (a); Mouthfeel/Thickness ([4]; in-mouth): 2.714 (b); Peak Sweetness ([4]; in-mouth): 4.857 (c); Upfront Sweetness ([4]; in-mouth): 3.571 (b); Licorice Aftertaste [5, 15]: 0.8; Lingering Sweetness [5, 15]: 2.6; Mouth Coating [5, 15]: 2.9; Overall Off-Taste [5, 15]: 2.1; Astringence [5, 16]: 0.5; Delayed Sweetness [5, 16]: 1.7; Fattiness [5, 16]: 2.9; Sourness [5, 16]: 0.5; Sweetness [5, 16]: 5.1; Licorice Aftertaste [5, 17]: 1.4; Lingering Sweetness [5, 17]: 3.7; Mouth Coating [5, 17]: 0.9; Overall Off-Taste [5, 17]: 2.0; Astringence [5, 18]: 0.7; Bitterness [5, 18]: 1.0; Delayed Sweetness [5, 18]: 2.5; Fattiness [5, 18]: 3.9; Global Flavor Intensity [5, 18]: 4.6; Sourness [5, 18]: 0.8; Sweetness [5, 18]: 6.8; Bitterness compared with mogroside V ([5]; at 400 ppm, in words): lower bitterness; Fattiness compared with mogroside V ([5]; at 400 ppm, in words): higher; Global flavor intensity compared with mogroside V ([5]; at 400 ppm, in words): higher; Sweetness compared with Reb M ([5]; at both 200 ppm and 400 ppm, in words): increased sweetness; Sweetness compared with mogroside V ([5]; in words): higher sweetness; Licorice Aftertaste [6, 19]: 2.1; Lingering Sweetness [6, 19]: 3.9; Mouth Coating [6, 19]: 1.9; Overall Off-Taste [6, 19]: 3.3; Delayed Sweetness [6, 20]: 3.5; Sweetness [6, 20]: 4.9; Delayed sweetness compared with Reb M ([6]; 250 ppm, in words): slightly increased delayed sweetness; Sweetness compared with Reb M ([6]; 250 ppm, in words): overall lower sweetness; Bitter aftertaste compared with Stevia [7]: lower bitter aftertaste; Licorice aftertaste compared with Stevia [7]: lower licorice aftertaste; Mouthfeel compared with Stevia [7]: better mouthfeel
